Our source for the melting point values is a melting point compilation (Tetko et al.; mined from patent text by program, amines drawn as free bases though some values may be those of a salt).

Where only a bound is given, the exact number is not on record here.

In the case of `N#Cc1nn(-c2c(Cl)cc(Cl)cc2Cl)cc1C1CC1(Br)Br` (centres undefined), the melting point (usually the temperature of the solid-liquid transition) amounted to 164 °C. To `Fc1cccc(F)c1C1=NC(c2ccccc2Br)CCS1` (centres undefined) belongs 136 to 138 °C; to `Cc1c(NCCNCC(O)COc2ccccc2)c(=O)n(C)c(=O)n1C` (centres undefined), 92 to 94 °C. As for `Cc1nnc(-c2ccc3occ(-c4ccc(S(C)=O)c(C)c4)c3c2)o1` (centres undefined), the figure is 195 to 196 °C; as for `O=C(/C=C/c1cccc(NC(=O)CCCc2ccccc2)c1)NO`, 152 to 153 °C. To `COc1cccc2c(=O)c(C=O)coc12` belongs 174 to 176 °C; to `COc1cccc2c(=O)c(CSC)cn(C)c12`, 143 to 145 °C; to `CCNC(=O)NS(=O)(=O)c1cc2c(cc1OC)OCCC2CNC(=O)c1cc(Cl)ccc1OC` (centres undefined), 211 to 213 °C.

Take `CNC(=O)c1cccc(NC(=O)Cc2ccc3c(c2)CC(C)(C)O3)c1`: the melting point fell in the range of 92 to 93 °C.

Molecule `Cc1cccc(Nc2nc(-c3cn[nH]c3)c(F)s2)n1` came in with a melting point of 204 °C.

Regarding `COc1cc(OC)nc(Oc2cccc(OC(F)F)c2C(=O)O)n1`, the melting point lay in the range of 113 to 115 °C. To `Nc1cccc(CN2CCC(NC(=O)NC(=O)c3ccccc3)CC2)c1` belongs 194 to 195 °C; to `CC(C)OC(=O)C(=C1SC=CS1)S(=O)(=O)C(C)C`, 124 to 125 °C; to `O=c1c2c(F)cccc2nc(C(S)c2ncnc3[nH]cnc23)n1-c1ccccc1Cl` (centres undefined), 223 to 224 °C.

The molecule `Cc1ccc(NN2C=c3cc(-c4c(Cl)cccc4Cl)c(=O)n(C)c3=NC2)cc1` had a melting point of 243 to 245 °C.

For the molecule `CC(=O)Oc1ccccc1C(=O)Nc1ccc(-n2nc(C(F)(F)F)cc2C(F)(F)F)cc1`, the melting point lay in the range of 159 to 161 °C.

In turn, `CNC(=O)Nc1ccc2c(c1)OC(C)(CCl)O2` (centres undefined) had a melting point of 156 °C.

The molecule `CN1CCCC(Cn2nc(-c3c(-c4ccccc4)nn4ccccc34)ccc2=O)C1` (centres undefined) had a melting point of 159 to 160 °C. As for `N#CC(Cc1ccccc1)C(=O)O` (centres undefined), the figure is 97 °C; as for `CCC(O)(CC)c1cccc(COc2ccc3c(-c4ccoc4)cc(C#N)cc3c2)n1`, 115 to 116 °C. To `N#CCNC(=O)c1ncn2c1CN(C(=O)N1CCCC1)c1ccccc1-2` belongs 241 to 242 °C; to `COC(=O)CCCCCNC(=O)C[C@H]1O[C@H](c2cccc(OC)c2OC)c2cc(Cl)ccc2N(CC(C)(C)CO)C1=O`, 131 to 132 °C. To `CCC(=O)N[C@@H](C)C(=O)N1CCC[C@H]1C(=O)NC1CCCCC1` belongs 172 to 174 °C; to `CN(C)C=Nc1c(Cl)cc(N=Cc2ccc3c(c2)OCO3)cc1Cl`, 155 to 156 °C; to `O=C(O)Cc1nsc(NC(=O)c2ccccc2)n1`, 173 to 175 °C.

Take `NC(=O)c1ccn(-c2ccc(Oc3ccccc3)cc2)n1`: the melting point is 165 to 167 °C.

`NC1(c2ccccc2Cl)C(=O)Nc2ccc(Cl)cc21` (centres undefined) had a melting point of 174 to 176 °C. As for `CN1CCC(c2c[nH]c3ccc(NC(=O)c4ccsc4)nc23)CC1`, the figure is 123 to 127 °C. Molecule `Nc1nc2ccc(Cc3ccc(F)cc3)cc2s1` displayed a melting point of 162 to 164 °C. To `COc1ccc(C2c3[nH]c4ccccc4c3CCN2C(=O)C=Cc2ccc(C(F)(F)F)cc2)cc1` (centres undefined) belongs 130 to 135 °C. As for `COC(=O)/C=C/C=C(c1ccccc1OC)c1ccccc1OC`, the figure is 100 to 102 °C; as for `Cc1c(C#N)c(-c2ccc(C#N)cc2)c(C)n1Cc1ccc(Cl)c(CO)c1`, 189 °C.

`CCOC(=O)C1CCC(c2ccc(Cl)cc2)n2c(=O)n(CCCl)c(=O)n21` (centres undefined): the melting point is 111 to 112 °C. As for `CN1CCN(C(=N)Nc2ccccc2-c2cccc(F)c2)CC1`, the figure is 117 to 118 °C.

Consider `NS(=O)(=O)c1ccccc1CSC1=NCCS1`, for which the melting point is 123 to 125 °C. As for `CCC(=O)Nc1c([N+](=O)[O-])cnn1-c1nc(Cl)c(C(F)(F)F)cc1Cl`, the figure is 148 to 154 °C; as for `O=C(O)Cc1coc2cc(OCc3cccc(OCc4ccc(C(F)(F)F)cc4)c3)ccc12`, 155 to 157 °C; as for `COc1cc(C=O)c(Cl)c(Cl)c1OC`, 120 to 123 °C. To `CC(=O)n1c2ccccc2c2ccccc21` belongs 70 to 71 °C; to `Cc1cc(C)c(N2CCC2=O)cc1NS(=O)(=O)C(F)(F)F`, 137 to 139 °C. As for `CCN(CC)CCn1c(=Nc2ccccc2)sc2ncccc2c1=O`, the figure is 61 to 62 °C; as for `O=C(O)C1Cc2c([nH]c3ccccc23)CN1C(=S)SCCc1ccccc1` (centres undefined), 89 to 90 °C; as for `CCc1ccc(C(C)(C)C)c(O)c1C(=O)Nc1ccc(S(=O)(=O)C(F)(F)F)cc1Cl`, 126 to 127 °C. `COCc1ncn2c1CN(C)C(=O)c1ccccc1-2`: the melting point lay within 115 to 116 °C. To `CC#Cc1ccc(NC(=O)C#Cc2ccc(CCN3CCCC3)cc2)cc1` belongs 198 to 199 °C; to `Fc1cc(Cc2ccnc3c2Cc2ccccc2O3)ccn1`, 185 to 189 °C; to `O=C(c1c[nH]c2cc([N+](=O)[O-])ccc12)C(F)(F)F`, 263 to 265 °C. To `CCOC(=O)C1(N)C=CNN1c1cc(Cl)cc(Cl)c1` (centres undefined) belongs 157 to 158 °C; to `Cc1oc(-c2ccccc2)nc1COc1ccc(Cn2cc(CCC(=O)O)c(-c3ccccc3)n2)nc1`, 175 to 176 °C.

Molecule `CCOC(=O)NC(=NCCCc1c[nH]cn1)NCCSCc1ccccn1` displayed a melting point of 60 to 61 °C.

Molecule `Cc1cc(C(=O)c2cccc(Cc3ccccc3)c2)c(O)c2ncccc12` had a melting point of 123 to 124 °C. As for `CCCCC(=O)OCC(=O)C1(OC(C)=O)CCC2C3CC(C)C4=CC(=O)C=CC4(C)C3C(O)CC21C` (centres undefined), the figure is 148 to 150 °C. To `COc1cc(CN2CCCC2)ccc1OCC(=O)Nc1ccc(-c2ccc(Cl)cc2)cc1` belongs 89 to 91 °C; to `O=S(=O)(Nc1ccc(Oc2cccc3cccnc23)c(Cl)c1)c1ccc(Cl)cc1`, 198 °C; to `CC1=NN(c2ccccc2O)C(=O)C1`, 212 to 214 °C. As for `CCN1C(=O)NC(Cc2c[nH]c3ccccc23)C1=O` (centres undefined), the figure is 167 to 170 °C; as for `COc1ccc([N+](=O)[O-])c(NC(C(=O)O)C(c2ccccc2)c2ccccc2)n1` (centres undefined), 172 to 180 °C; as for `CCCc1nc2c(N)nc3ccc(-c4ccc(CO)cc4)cc3c2s1`, 212 to 214 °C. Molecule `CN1CCc2c(c3ccccc3n2CCC#N)C1` yielded a melting point of 108 to 110 °C.

As for `O=C(Oc1ccccc1)N1CCC2(CC1)c1ccccc1Sc1ccccc12`, the melting point lay in the range of 149 to 151 °C. Regarding `Cc1ccc(S(=O)(=O)OCC2Cc3cccc(-c4cccc(C)c4)c3O2)cc1` (centres undefined), the melting point lay within 81 to 82 °C. As for `CC(C)(O)Cn1c(CO)nc2c(N)nc3cc(CCS(C)(=O)=O)ccc3c21`, the figure is 221 to 223 °C; as for `CC(C)(C)NCC(O)C(Cl)(Cl)Cl` (centres undefined), 48 to 50 °C; as for `COc1ccc(S(=O)(=O)N2C(=O)[C@@](c3ccccc3OC)(N3C[C@H](OC(=O)N(C)C)C[C@H]3C(=O)N(C)C)c3cc(Cl)ccc32)c(OC)c1`, 138 to 140 °C. As for `Cc1c2c(c(C=O)c(C(C)C)c1OCc1ccccc1)OC(C)(C)C2`, the figure is 107 to 108 °C; as for `CCCn1nc2c(N)nc3ccccc3c2c1CCCC1=CCN(Cc2ccccc2)C1`, 150 to 152 °C; as for `CC(=O)Nc1ccc(NC(=O)NC23CC4CC(CC(C4)C2)C3)cn1`, 252 to 254 °C. For `CC1NC(=O)NN=C1c1ccc(NC(=O)CO)cc1` (centres undefined), the melting point was 246 to 248 °C. As for `NCCOc1ccc(CC2SC(=O)NC2=O)cc1` (centres undefined), the figure is 175 to 176 °C. For the molecule `COC(=O)[C@H](Cc1ccc([N+](=O)[O-])cc1)NC(C)=O`, the melting point turned out to be 126 °C.

On to `CC(C)c1cc(C(=O)Nc2ccc(C(=O)O)cn2)oc1C(C)C`, for which the melting point was 278 to 279 °C.

In the case of `COc1cc2ncnc(N3CCC(C(C)=O)CC3)c2cc1OC`, the melting point is 116 to 117 °C. In the case of `Oc1ccc(-c2cnccn2)cc1`, the melting point was in the range of 216 to 217 °C. As for `CC1(C)CC(=O)C(C)(C)c2cc(C=O)ccc21`, the figure is 82 to 84 °C; as for `CC1(C)C(C=C2CCSC2=O)C1C(=O)OC(C#N)c1ccc(F)c(Oc2ccccc2)c1` (centres undefined), 131 °C. Take `CSc1ccc(-c2cc(C(F)F)nn2-c2ccc(S(N)(=O)=O)cc2)cc1`: the melting point was in the range of 157 to 158 °C. As for `O=C(NCc1ccccn1)Nc1cc(-n2c(=O)n(-c3ccccc3)c3ccccc32)ccn1`, the figure is 231 to 232 °C. To `Nc1nc2ccc(S(=O)(=O)n3c(CCCC(=O)O)cc4nc(Cl)ccc43)cc2s1` belongs more than 250 °C; to `O=[N+]([O-])C=Cc1cccc(Cl)c1Cl`, 89 to 91 °C. To `CNc1nnc(-c2ccc3occ(-c4ccccc4Cl)c3c2)o1` belongs 205 to 206 °C; to `ON=C1CCSc2sccc21`, 123 to 124 °C; to `CCOC(=O)c1ncn2cc(Br)sc12`, 171 to 172 °C.

`CCCCc1nc(C(C)O)c(C#N)n1Cc1ccc(-c2ccccc2C(=O)O)cc1` (centres undefined): the melting point is 200 to 201 °C. As for `Cc1[nH]cnc1CCNC(=NCCCOc1cccc(CN2CCCCC2)c1)NC(=O)c1ccccc1`, the figure is 118 to 120 °C. To `COc1ccc(CNc2ncnc3c2ncn3C2OC(c3nnn[nH]3)C(O)C2O)cc1` (centres undefined) belongs 210 to 211 °C; to `CC(C)(C)c1cc(Cc2cc(C(C)(C)C)cc(C(C)(C)C)c2O)c(O)c(C(C)(C)C)c1`, 141 to 142 °C. To `O=C1CC=C2c3ccc(Cl)cc3CCC2N1` (centres undefined) belongs 241 to 243 °C; to `Cn1c(C(F)(F)F)cc(=O)n(-c2c(F)cc(Cl)c3c2OC(C)(C)C3O)c1=O` (centres undefined), 82 to 83 °C. `CCOC(=O)C1=C2COCCN2C(C)=C(C(=O)OC)C1c1ccccc1Cl` (centres undefined) came in with a melting point of 141 to 143 °C.
